Test results as given in US20070213303A1, “Methods for reducing platelet activation and for the treatment of thrombotic events” (priority 2005, published 2007).

What was measured:
Type in all cases: cell-based, human
GP37 (CD165) = assay: Flow cytometry, platelet surface expression of CD165
Description: (§1) Venous blood (8 ml) is collected in a plastic tube containing 2 ml of acid-citrate-dextrose (ACD) (7.3 g citric acid, 22.0 g sodium citrate.2H2O and 24.5 glucose in 1000 ml distilled water) and mixed well. The blood-ACD mixture is centrifuged at 1000 r.p.m. for 10 minutes at room temperature. The upper ⅔ of the platelet-rich plasma (PRP) is then collected and adjusted to pH=6.5 by adding ACD. The PRP is then centrifuged at 3000 r.p.m. for 10 minutes. The supernatant is removed and the platelet pellet is gently resuspended in 4 cc of the washing buffer (10 mM Tris/HCl, 0.15 M NaCl, 20 mM EDTA, pH=7.4). Platelets are washed in the washing buffer, and in TBS (10 mM Tris, 0.15 M NaCl, pH=7.4). All cells are then divided into the appropriate number of tubes. By way of example, if 9 different surface markers are evaluated, as described herein, then the cells should be divided into ten tubes, such that nine tubes containing washed platelets are incubated with 5 μl fluorescein isothiocyanate (FITC)-conjugated antibodies in the dark at +4° C. for 30 minutes, and one tube remains unstained and serves as a negative control. Surface antigen expression is measured with monoclonal murine anti-human antibodies, such as CD9 (p24); CD41a (IIb/IIIa, aIIbb3); CD42b (Ib); CD61(IIIa) (DAKO Corporation, Carpinteria, Calif.); CD49b (VLA-2, or a2b1); CD62p (P-selectin); CD31 (PECAM-1); CD 41b (IIb); and CD51/CD61 (vitronectin receptor, avb3) (PharMingen, San Diego Calif.), as the expression of these antigens on the cells is associated with platelet activation. After incubation, the cells are washed with TBS and resuspended in 0.25 ml of 1% paraformaldehyde. Samples are stored in the refrigerator at +4° C., and analyzed on a Becton Dickinson FACScan flow cytometer with laser output of 15 mw, excitation at 488 nm, and emission detection at 530±30 nm. The data can be collected and stored in list mode, and then analyzed using CELLQuest® software. FACS procedures are described in detail in, e.g., Gurbel, P. A. et al., J Amer Coll Cardiol 31: 1466-1473 (1998); Serebruany, V. L. et al., Am Heart J 136: 398-405 (1998); Gurbel, P. A. et al., Coron Artery Dis 9: 451-456 (1998) and Serebruany, V. L. et al., Arterioscl Thromb Vasc Biol 19: 153-158 (1999).
(§2) Four cc of blood is collected in a tube, containing 2 cc of acid-citrate-dextrose (ACD; 7.3 g citric acid, 22.0 g sodium citrate.2H2O and 24.5 glucose in 1000 ml distilled water) and mixed well. The buffer, TBS (10 mM Tris, 0.15 M NaCl, pH 7.4) and the following fluorescein isothiocyanate (FITC) conjugated monoclonal antibodies (PharMingen, San Diego, Calif., USA, and DAKO, Calif., USA) are removed from a refrigerator and allowed to warm at room temperature (RT) prior to their use. The non-limiting examples of antibodies that can be used include CD41 (IIb/IIIa), CD31 (PECAM-1), CD62p (P-selectin), and CD51/61 (Vitronectin receptor). For each subject, six amber tubes (1.25 ml) are one Eppendorf tube (1.5 ml) are obtained and marked appropriately 450 μl of TBS buffer is pipetted to the labeled Eppendorf tube. A patient's whole blood tube is inverted gently twice to mix, and 50 μl of whole blood is pipetted to the appropriately labeled Eppendorf tube. The Eppendorf tube is capped and the diluted whole blood is mixed by inverting the Eppendorf tube gently two times, followed by pipetting 50 μl of diluted whole blood to each amber tube. […] The samples are analyzed on a Becton Dickinson FACScan flow cytometer. […]

GP Ib (CD42b) = assay: Flow cytometry, platelet surface expression of CD42b
Description: as §1, §2

LAMP-1 (CD107a) = assay: Flow cytometry, platelet surface expression of CD107a
Description: as §1, §2

LAMP-3 (CD63) = assay: Flow cytometry, platelet surface expression of CD63
Description: as §1, §2

P-selectin (CD62p) = assay: Flow cytometry, platelet surface expression of CD62p
Description: as §1, §2

thrombospondin (CD36) = assay: Flow cytometry, platelet surface expression of thrombospondin
Description: as §1, §2

CD40-ligand (CD154) = assay: Flow cytometry, platelet surface expression of CD154
Description: as §1, §2

PAC-1 = assay: Flow cytometry, activity with PAC-1 antibody
Description: as §1, §2

CC(C)(Sc1cc(C(C)(C)C)c(O)c(C(C)(C)C)c1)Sc1cc(C(C)(C)C)c(OC(=O)CCC(=O)O)c(C(C)(C)C)c1 [Compound A]
GP37 (CD165) (GP37 (CD165)): little or no effect
Flow cytometry CD165 (GP37 (CD165); preincubation 15 μg/mL): 26.9 ± 2.7
Flow cytometry CD165 (GP37 (CD165); preincubation 30 μg/mL): 24.7 ± 2.7
Flow cytometry CD165 (GP37 (CD165); preincubation 60 μg/mL): 26.4 ± 3.7
Flow cytometry CD165 (GP37 (CD165); preincubation 90 μg/mL): 25.5 ± 3.2
Flow cytometry CD42b (GP Ib (CD42b); preincubation 15 μg/mL): 151.6 ± 11.2
Flow cytometry CD42b (GP Ib (CD42b); preincubation 30 μg/mL): 142.8 ± 11.4
Flow cytometry CD42b (GP Ib (CD42b); preincubation 60 μg/mL): 137.7 ± 8.9
Flow cytometry CD42b (GP Ib (CD42b); preincubation 90 μg/mL): 111.2 ± 11.2
Surface platelet expression of GP Ib (CD42b) (GP Ib (CD42b); pretreated samples): decreased
LAMP-1 (CD107a) (LAMP-1 (CD107a)): little or no effect
Flow cytometry CD107a (LAMP-1 (CD107a); preincubation 15 μg/mL): 6.7 ± 1.5
Flow cytometry CD107a (LAMP-1 (CD107a); preincubation 30 μg/mL): 6.4 ± 1.4
Flow cytometry CD107a (LAMP-1 (CD107a); preincubation 60 μg/mL): 6.1 ± 1.5
Flow cytometry CD107a (LAMP-1 (CD107a); preincubation 90 μg/mL): 6.4 ± 1.6
LAMP-3 (CD63) (LAMP-3 (CD63)): little or no effect
Flow cytometry CD63 (LAMP-3 (CD63); preincubation 15 μg/mL): 7.0 ± 1.4
Flow cytometry CD63 (LAMP-3 (CD63); preincubation 30 μg/mL): 7.4 ± 1.4
Flow cytometry CD63 (LAMP-3 (CD63); preincubation 60 μg/mL): 6.8 ± 1.5
Flow cytometry CD63 (LAMP-3 (CD63); preincubation 90 μg/mL): 6.7 ± 1.4
P-selectin (CD62p) (P-selectin (CD62p)): little or no effect
Flow cytometry CD62p (P-selectin (CD62p); preincubation 15 μg/mL): 9.8 ± 1.8
Flow cytometry CD62p (P-selectin (CD62p); preincubation 30 μg/mL): 10.2 ± 1.9
Flow cytometry CD62p (P-selectin (CD62p); preincubation 60 μg/mL): 10.5 ± 1.8
Flow cytometry CD62p (P-selectin (CD62p); preincubation 90 μg/mL): 9.7 ± 1.8
thrombospondin (CD36) (thrombospondin (CD36)): little or no effect
Flow cytometry Thrombospondin (thrombospondin (CD36); preincubation 15 μg/mL): 10.1 ± 1.9
Flow cytometry Thrombospondin (thrombospondin (CD36); preincubation 30 μg/mL): 11.0 ± 2.3
Flow cytometry Thrombospondin (thrombospondin (CD36); preincubation 60 μg/mL): 10.3 ± 1.9
Flow cytometry Thrombospondin (thrombospondin (CD36); preincubation 90 μg/mL): 9.6 ± 2.0
CD40-ligand (CD154) (CD40-ligand (CD154)): little or no effect
Flow cytometry CD154 (CD40-ligand (CD154); preincubation 15 μg/mL): 6.6 ± 1.0
Flow cytometry CD154 (CD40-ligand (CD154); preincubation 30 μg/mL): 6.7 ± 0.9
Flow cytometry CD154 (CD40-ligand (CD154); preincubation 60 μg/mL): 6.8 ± 1.1
Flow cytometry CD154 (CD40-ligand (CD154); preincubation 90 μg/mL): 7.0 ± 1.1
Flow cytometry PAC-1 (PAC-1; preincubation 15 μg/mL): 11.4 ± 1.1
Flow cytometry PAC-1 (PAC-1; preincubation 30 μg/mL): 11.2 ± 1.4
Flow cytometry PAC-1 (PAC-1; preincubation 60 μg/mL): 10.9 ± 2.2
Flow cytometry PAC-1 (PAC-1; preincubation 90 μg/mL): 10.3 ± 1.8
GP IIb/IIIa activity with PAC-1 antibody (PAC-1; pretreated samples): decreased
